The term melting point denotes the temperature of the solid-liquid transition.

The compound `CCCC(O)c1c(CC)nc2c(-c3ccc(Cl)cc3Cl)nccn12` (stereo not shown) [Example 7, 8-(2,4-dichlorophenyl)-2-ethyl-3-(1-hydroxybutyl)imidazo[1,2-a]pyrazine] had a melting point of 159 to 160 °C.

These data come from patent publication US6589952B2, “Imidazo[1,2-a]pyrazines for the treatment of neurological disorders” (Bristol-Myers Squibb Pharma Company, priority 2000, dated 2003).
